These results are taken from patent publication US20100003246A1, “Novel heterocyclic compounds and uses therof” (priority 2008, published 2010).

Each structure is given as a SMILES string.

For the test, the target named is T1, b-Raf(V600E) (Homo sapiens, UniProt P15056, V600E).
T1 construct: made in house
T1 sequence (P15056 whole entry V600E): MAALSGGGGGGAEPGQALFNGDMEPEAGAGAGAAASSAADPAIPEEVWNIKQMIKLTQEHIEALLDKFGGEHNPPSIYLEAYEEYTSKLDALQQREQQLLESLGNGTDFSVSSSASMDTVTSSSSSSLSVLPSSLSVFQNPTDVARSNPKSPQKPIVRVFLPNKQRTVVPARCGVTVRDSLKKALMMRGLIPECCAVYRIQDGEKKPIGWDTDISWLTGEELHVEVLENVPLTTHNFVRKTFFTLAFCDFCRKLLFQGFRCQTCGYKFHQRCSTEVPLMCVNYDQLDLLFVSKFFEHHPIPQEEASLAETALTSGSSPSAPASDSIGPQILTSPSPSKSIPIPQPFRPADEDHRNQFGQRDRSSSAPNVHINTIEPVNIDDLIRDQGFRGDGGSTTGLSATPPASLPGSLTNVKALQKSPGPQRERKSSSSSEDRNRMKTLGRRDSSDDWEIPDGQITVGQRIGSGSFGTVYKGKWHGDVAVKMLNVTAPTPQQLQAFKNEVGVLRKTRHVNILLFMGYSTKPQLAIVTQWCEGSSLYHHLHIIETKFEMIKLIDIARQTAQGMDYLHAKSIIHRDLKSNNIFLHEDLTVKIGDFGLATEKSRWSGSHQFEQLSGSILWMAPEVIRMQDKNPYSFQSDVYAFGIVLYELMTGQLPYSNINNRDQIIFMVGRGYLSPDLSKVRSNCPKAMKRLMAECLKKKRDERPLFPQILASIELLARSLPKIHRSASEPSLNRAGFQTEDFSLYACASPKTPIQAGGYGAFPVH
Description: Raf/Mek Amplified Luminescence Proximity Homogeneous Assay (Alpha Screen), b-Raf(V600E). Format: biochemical. The note with it: mutant b-Raf(V600E), read-out: mut-b-RAF (IC50 in uM). The method, then: Assay buffer: 50 mM Tris, pH 7.5, 15 mM MgCl2, 0.01% BSA, 1 mM DTT Stop buffer: 60 mM EDTA, 0.01% Tween20 Bead buffer: 50 mM Tris, pH 7.5, 0.01% Tween20
b-Raf(V600E), active: Recombinant in-house material biotinylated Mek, kinase dead: Recombinant in-house material Alpha Screen detection kit PerkinElmer, #6760617R Anti phospho-MEK½ Cell signaling #9121 384 well assay plates: White Greiner plates, #781207
b-Raf(V600E) approximately 4 pM c-Raf approximately 4 nM biotinylated Mek, Kinase dead approximately 10 nM
Pre-incubation time with compounds 60 min at room temperature Reaction time 1 or 3 hours at room temperature
Raf and biotinylated Mek, kinase dead, were combined at 2× final concentrations in assay buffer (50 mM Tris, pH 7.5, 15 mM MgCl2, 0.01% BSA and 1 mM DTT) and dispensed 10 μl per well in assay plates (Greiner white 384 well assay plates #781207) containing 0.5 μl of 40× of a raf kinase inhibitor test compound diluted in 100% DMSO. The plate was incubated for 60 min at room temperature.
The Raf kinase activity reaction was started by the addition of 10 μl per well of 2×ATP diluted in assay buffer. After 3 hours (bRaf(V600E)) or 1 hour (c-Raf), the reactions were stopped with the addition of 10 μl of stop reagent (60 mM EDTA). Phosphorylated product was measured using a rabbit anti-p-MEK (Cell Signaling, #9121) antibody and the Alpha Screen IgG (Protein A) detection Kit (PerkinElmer #6760617R), by the addition of 30 μL to the well of a mixture of the antibody (1:2000 dilution) and detection beads (1:2000 dilution of both beads) in bead buffer (50 mM Tris, pH 7.5, 0.01% Tween20). The additions were carried out under dark conditions to protect the detection beads from light. A lid was placed on top of the plate and incubated for 1 hour at room temperature, then the luminescence was read on a PerkinElmer Envision instrument. The concentration of each compound for 50% inhibition (IC50) was calculated by non-linear regression using XL Fit data analysis software.
The Raf/Mek Amplified Luminescence Proximity Homogeneous Assay described was used to generate the luminescence and mutant b-Raf(V600E) IC50 data for selected Raf Kinase Inhibitors shown in Table 1 above.
Usually IC50 stands for the concentration at which inhibition is half-maximal. In the case of `COc1cc(-c2[nH]c(-c3ccccc3)nc2-c2ccnc(NCCNS(=O)(=O)c3ccc(Cl)cc3)n2)cnc1N` [Compound 70, N-(2-(4-(5-(6-amino-5-methoxypyridin-3-yl)-2-phenyl-1H-imidazol-4-yl)pyrimidin-2-ylamino)ethyl)-4-chlorobenzenesulfonamide], the IC50 was determined as 0.0004 µM.

For the compound `COC(=O)N[C@@H](C)CNc1nccc(-c2nc(C(C)(C)C)[nH]c2-c2cnc3[nH]ccc3c2)n1` [Compound 262, (S)-methyl 1-(4-(2-tert-butyl-5-(1H-pyrrolo[2,3-b]pyridin-5-yl)-1H-imidazol-4-yl)pyrimidin-2-ylamino)propan-2-ylcarbamate], the IC50 stood at 0.0002 µM.

For the compound `Fc1ccc(-c2nc(-c3ccncc3)c(-c3ccc4nccn4c3)[nH]2)cc1` [Compound 141, 6-(2-(4-fluorophenyl)-4-(pyridin-4-yl)-1H-imidazol-5-yl)imidazo[1,2-a]pyridine], the IC50 was determined as 0.618 µM.

Regarding `COc1cc(-c2nc(C(C)(C)C)[nH]c2-c2ccnc(NC[C@H](C)NC(=O)[C@H](C)OC)n2)cnc1N` [Compound 241, (S)-N-((S)-1-(4-(4-(6-amino-5-methoxypyridin-3-yl)-2-tert-butyl-1H-imidazol-5-yl)pyrimidin-2-ylamino)propan-2-yl)-2-methoxypropanamide], the IC50 was determined as 0.0007 µM.

For the compound `COc1cc(-c2nc(C3=CCOCC3)[nH]c2-c2ccncc2)cnc1N` [Compound 154, 5-(2-(3,6-dihydro-2H-pyran-4-yl)-5-(pyridin-4-yl)-1H-imidazol-4-yl)-3-methoxypyridin-2-amine], the IC50 came out at 0.0033 µM.

Regarding `Nc1n[nH]c2cc(-c3[nH]c(-c4ccccc4)nc3-c3ccncc3)ccc12` [Compound 24, 6-(2-phenyl-4-(pyridin-4-yl)-1H-imidazol-5-yl)-1H-indazol-3-amine], the IC50 is 0.058 µM.

Consider `COCC(=O)NCCNc1nccc(-c2nc(-c3ccc(F)cc3)[nH]c2-c2cnc3[nH]cc(Cl)c3c2)n1` [Compound 160, N-(2-(4-(5-(3-chloro-1H-pyrrolo[2,3-b]pyridin-5-yl)-2-(4-fluorophenyl)-1H-imidazol-4-yl)pyrimidin-2-ylamino)ethyl)-2-methoxyacetamide], for which the IC50 came to 0.0003 µM.

With `CC(=O)Nc1n[nH]c2cc(-c3[nH]c(-c4ccccc4)nc3-c3ccncc3)ccc12` [Compound 28, N-(6-(2-phenyl-4-(pyridin-4-yl)-1H-imidazol-5-yl)-1H-indazol-3-yl)acetamide], the IC50 is 0.449 µM.

Regarding `COc1cc(-c2[nH]c(-c3cccc(S(C)(=O)=O)c3)nc2-c2ccncc2)cnc1N` [Compound 120, 3-methoxy-5-(2-(3-(methylsulfonyl)phenyl)-4-(pyridin-4-yl)-1H-imidazol-5-yl)pyridin-2-amine], the IC50 came out at 0.0088 µM.

`COc1cc(-c2[nH]c(-c3ccc(C(F)(F)F)cc3)nc2-c2ccncc2)cnc1N` [Example 2, 3-methoxy-5-(5-(pyridine-4-yl)-2-(4-(trifluoromethyl)phenyl)-1H-imidazol-4-yl)pyridin-2-amine]: the IC50 is 0.0004 µM.

For the compound `COCCNc1nccc(-c2nc(-c3ccc(F)cc3)[nH]c2-c2cnc(N)c(OC)c2)n1` [Compound 161, 4-(5-(6-amino-5-methoxypyridin-3-yl)-2-(4-fluorophenyl)-1H-imidazol-4-yl)-N-(2-methoxyethyl)pyrimidin-2-amine], the IC50 was determined as 0.0022 µM.

For the compound `COc1cc(-c2[nH]c(-c3ccccc3C(F)(F)F)nc2-c2ccncc2)cnc1N` [Compound 136, 3-methoxy-5-(4-(pyridin-4-yl)-2-(2-(trifluoromethyl)phenyl)-1H-imidazol-5-yl)pyridin-2-amine], the IC50 was 0.0028 µM.

Consider `COc1cc(-c2nc(-c3ccccc3)[nH]c2-c2ccnc(C)c2)cnc1N` [Compound 48, 3-methoxy-5-(5-(2-methylpyridin-4-yl)-2-phenyl-1H-imidazol-4-yl)pyridin-2-amine], for which the IC50 was 0.12 µM.

Turning to `COc1cc(-c2[nH]c(-c3cccc4ncccc34)nc2-c2ccncc2)cnc1N` [Compound 169, 3-methoxy-5-(4-(pyridin-4-yl)-2-(quinolin-5-yl)-1H-imidazol-5-yl)pyridin-2-amine], the IC50 worked out at 0.0016 µM.

On to `COc1cc(-c2nc(-c3ccccc3)[nH]c2-c2ccnc(NC[C@@H](C)O)n2)cnc1N` [Compound 75, (R)-1-(4-(4-(6-amino-5-methoxypyridin-3-yl)-2-phenyl-1H-imidazol-5-yl)pyrimidin-2-ylamino)propan-2-ol], for which the IC50 stood at 0.0011 µM.

Take `COc1cc(-c2nc(C(C)(C)C)n(C)c2-c2ccnc(NCC(C)C)n2)cnc1N` [Compound 228, 4-(4-(6-amino-5-methoxypyridin-3-yl)-2-tert-butyl-1-methyl-1H-imidazol-5-yl)-N-isobutylpyrimidin-2-amine]: the IC50 worked out at 0.0006 µM.

On to `COCC(=O)NCCNc1nccc(-c2nc(-c3ccc(F)cc3)[nH]c2-c2cnc3[nH]cc(Br)c3c2)n1` [Compound 166, N-(2-(4-(5-(3-bromo-1H-pyrrolo[2,3-b]pyridin-5-yl)-2-(4-fluorophenyl)-1H-imidazol-4-yl)pyrimidin-2-ylamino)ethyl)-2-methoxyacetamide], for which the IC50 worked out at 0.0001 µM.

As to `COc1ccc(-c2nc(-c3ccncc3)c(-c3cnc(N)c(OC)c3)[nH]2)cc1F` [Compound 108, 5-(2-(3-fluoro-4-methoxyphenyl)-4-(pyridin-4-yl)-1H-imidazo-5-yl)-3-methoxypyridin-2-amine], the IC50 is 0.0007 µM.

For `COc1cc(-c2nc(-c3ccccc3)[nH]c2-c2ccnc(N)n2)cnc1N` [Compound 73, 4-(4-(6-amino-5-methoxypyridin-3-yl)-2-phenyl-1H-imidazol-5-yl)pyrimidin-2-amine], the IC50 came to 0.0011 µM.

As for `COc1cc(-c2[nH]c(-c3ccc(F)cc3)nc2-c2ccnc3[nH]ccc23)cnc1N` [Compound 129, 5-(2-(4-fluorophenyl)-4-(1H-pyrrolo[2,3-b]pyridin-4-yl)-1H-imidazol-5-yl)-3-methoxypyridin-2-amine], the IC50 turned out to be 0.0088 µM.

As for `COc1nc(-c2[nH]c(C)nc2-c2ccncc2)cnc1N` [Compound 50, 3-methoxy-5-(2-methyl-4-(pyridin-4-yl)-1H-imidazol-5-yl)pyrazin-2-amine], the IC50 worked out at 0.259 µM.

On to `COc1cc(-c2nc(C(C)(C)C)[nH]c2-c2ccnc(N)n2)cnc1N` [Compound 201, 4-(4-(6-amino-5-methoxypyridin-3-yl)-2-tert-butyl-1H-imidazol-5-yl)pyrimidin-2-amine], for which the IC50 is 0.0005 µM.

`COCC(=O)N[C@@H](C)CNc1nccc(-c2oc(-c3ccc(F)cc3)nc2-c2cnc(N)c(OC)c2)n1` [Compound 214, (S)-N-(1-(4-(4-(6-amino-5-methoxypyridin-3-yl)-2-(4-fluorophenyl)oxazol-5-yl)pyrimidin-2-ylamino)propan-2-yl)-2-methoxyacetamide]: the IC50 was 0.001 µM.

As for `COc1cc(-c2[nH]c(-c3ccccc3)nc2-c2ccnc(NCCNS(C)(=O)=O)n2)cnc1N` [Compound 99, N-(2-(4-(5-(6-amino-5-methoxypyridin-3-yl)-2-phenyl-1H-imidazol-4-yl)pyrimidin-2-ylamino)ethyl)methanesul-fonamide], the IC50 came out at 0.0001 µM.

Take `COc1cc(-c2nc(-c3ccccc3)[nH]c2-c2ccncn2)cnc1N` [Compound 61, 3-methoxy-5-(2-phenyl-5-(pyrimidin-4-yl)-1H-imidazol-4-yl)pyridin-2-amine]: the IC50 is 0.0049 µM.

Take `COC(=O)c1cccc(-c2nc(-c3ccncc3)c(-c3cnc(N)c(OC)c3)[nH]2)c1` [Compound 101, methyl 3-(5-(6-amino-5-methoxypyridin-3-yl)-4-(pyridin-4-yl)-1H-imidazol-2-yl)benzoate]: the IC50 was 0.0013 µM.

`O=C1CCc2cc(-c3[nH]c(-c4ccccc4)nc3-c3ccncc3)cnc2N1` [Compound 47, 6-(2-phenyl-4-(pyridin-4-yl)-1H-imidazol-5-yl)-3,4-dihydro-1,8-naphthyridin-2(1H)-one]: the IC50 came out at 0.885 µM.

With `Cc1cc(-c2[nH]c(-c3ccc(F)cc3)nc2-c2ccncc2)cnc1N` [Compound 152, 5-(2-(4-fluorophenyl)-4-(pyridin-4-yl)-1H-imidazol-5-yl)-3-methylpyridin-2-amine], the IC50 was determined as 0.0658 µM.

On to `COc1cc(-c2nc(-c3ccc(C(F)(F)F)cc3)oc2-c2ccnc(NCC(C)C)n2)cnc1N` [Compound 224, 4-(4-(6-amino-5-methoxypyridin-3-yl)-2-(4-(trifluoromethyl)phenyl)oxazol-5-yl)-N-isobutylpyrimidin-2-amine], for which the IC50 was determined as 0.014 µM.
